By IC50 is commonly meant the concentration that inhibits the measured activity by half.

Chain of EGFR (P00533 whole entry, looked up): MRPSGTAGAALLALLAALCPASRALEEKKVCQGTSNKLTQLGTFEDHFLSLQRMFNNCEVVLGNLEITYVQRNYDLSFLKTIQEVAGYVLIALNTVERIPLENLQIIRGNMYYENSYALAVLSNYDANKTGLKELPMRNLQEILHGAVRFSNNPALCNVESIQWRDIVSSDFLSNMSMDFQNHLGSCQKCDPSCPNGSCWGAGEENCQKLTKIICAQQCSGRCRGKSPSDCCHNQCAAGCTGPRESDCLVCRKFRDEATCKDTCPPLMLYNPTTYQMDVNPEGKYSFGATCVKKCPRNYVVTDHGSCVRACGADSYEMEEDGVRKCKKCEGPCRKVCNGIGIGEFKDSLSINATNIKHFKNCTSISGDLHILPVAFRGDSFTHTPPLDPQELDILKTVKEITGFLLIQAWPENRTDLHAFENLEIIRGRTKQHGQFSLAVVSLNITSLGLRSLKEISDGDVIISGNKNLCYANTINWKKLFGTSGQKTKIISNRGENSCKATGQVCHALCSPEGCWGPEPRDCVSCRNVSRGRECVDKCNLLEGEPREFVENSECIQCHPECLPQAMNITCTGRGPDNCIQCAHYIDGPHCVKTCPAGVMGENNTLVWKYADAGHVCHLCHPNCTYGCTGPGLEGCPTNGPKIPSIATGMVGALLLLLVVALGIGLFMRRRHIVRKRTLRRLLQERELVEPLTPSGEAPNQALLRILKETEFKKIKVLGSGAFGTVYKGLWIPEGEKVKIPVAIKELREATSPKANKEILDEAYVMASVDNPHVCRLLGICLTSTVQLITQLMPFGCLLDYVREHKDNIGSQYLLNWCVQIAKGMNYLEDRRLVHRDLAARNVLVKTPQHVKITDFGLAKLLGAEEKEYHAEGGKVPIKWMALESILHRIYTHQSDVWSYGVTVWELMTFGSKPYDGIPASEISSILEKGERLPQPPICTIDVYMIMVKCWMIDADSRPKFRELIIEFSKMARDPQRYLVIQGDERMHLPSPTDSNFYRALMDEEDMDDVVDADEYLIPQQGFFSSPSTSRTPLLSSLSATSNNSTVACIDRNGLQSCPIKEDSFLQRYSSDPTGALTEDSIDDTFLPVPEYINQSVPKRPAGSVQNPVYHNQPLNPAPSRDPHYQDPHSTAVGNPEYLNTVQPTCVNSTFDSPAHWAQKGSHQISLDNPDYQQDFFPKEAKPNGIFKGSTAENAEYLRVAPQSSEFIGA

This experiment has as its target EGFR (UniProt P00533).
The compound `COc1cc2c(NS(=O)(=O)c3ccccc3)ncnc2cc1OCCN1CCN(C)CC1` came in with a half-inhibitory concentration (IC50) of at most 1000 nM.

Turning to `COc1cc2c(NS(=O)(=O)Cc3ccccc3)ncnc2cc1OCCN1CCOCC1`, the half-inhibitory concentration (IC50) was at most 1000 nM.

Compound `COc1cc2c(NS(=O)(=O)c3ccc(C)cc3)ncnc2cc1OCCN1CCN(C)CC1` registered an IC50 of at most 1000 nM.

`COc1cc2c(NS(=O)(=O)c3ccccc3Br)ncnc2cc1OCCN1CCOCC1`: the half-maximal inhibitory concentration (IC50) is at most 1000 nM.

For `CCN(CC)CCOc1cc2ncnc(NS(=O)(=O)c3ccccc3Br)c2cc1OC`, the half-inhibitory concentration (IC50) is at most 1000 nM.

`COc1cc2c(NS(=O)(=O)c3ccccc3)ncnc2cc1OCCN1CCCCC1`: the IC50 was at most 1000 nM.

`CCN(CC)CCOc1cc2ncnc(NS(=O)(=O)c3ccc(Cl)s3)c2cc1OC`: the IC50 is at most 1000 nM.

`COc1cc2c(NS(=O)(=O)c3ccccc3Br)ncnc2cc1OC1CCN(C)CC1`: the IC50 is at most 1000 nM.

The compound `CCN(CC)CCOc1cc2ncnc(NS(=O)(=O)c3ccc(Sc4ccccc4)s3)c2cc1OC` displayed an IC50 of at most 1000 nM.

Compound `COc1cc2c(NS(=O)(=O)c3cccc4cccnc34)ncnc2cc1OCCCN1CCOCC1` gave an IC50 of at most 1000 nM.

`COc1cc2c(NS(=O)(=O)Cc3ccccc3)ncnc2cc1OC1CCN(C)CC1` registered an IC50 of at most 1000 nM.

As for `COc1cc2c(NS(=O)(=O)c3cccc(Cl)c3)ncnc2cc1OC1CCN(C)CC1`, the IC50 is at most 1000 nM.

Take `COc1cc2c(NS(=O)(=O)c3ccc(Br)cc3)ncnc2cc1OC1CCN(C)CC1`: the IC50 was at most 1000 nM.

The compound `COc1cc2c(NS(=O)(=O)c3ccccc3C)ncnc2cc1OCCCN1CCOCC1` displayed an IC50 of at most 1000 nM.

In turn, `COc1cc2c(NS(=O)(=O)c3ccccc3C)ncnc2cc1OCCN1CCOCC1` had an IC50 of at most 1000 nM.

As to `COc1cc2c(NS(=O)(=O)c3ccccc3Br)ncnc2cc1OCCCN(C)C`, the IC50 was at most 1000 nM.

`COc1cc2c(NS(=O)(=O)c3ccc(Cl)s3)ncnc2cc1OCCN1CCCCC1` came in with a concentration for half-maximal inhibition (IC50) of at most 1000 nM.

`COc1cc2c(NS(=O)(=O)c3c(C)cc(C)cc3C)ncnc2cc1OCCN1CCCCC1`: the IC50 is at most 1000 nM.

In the case of `COc1cc2c(NS(=O)(=O)c3ccc(F)cc3)ncnc2cc1OCCCN(C)C`, the half-maximal inhibitory concentration (IC50) was at most 1000 nM.

`COc1cc2c(NS(=O)(=O)c3ccccc3Br)ncnc2cc1OCCN1CCCCC1` had an IC50 of at most 1000 nM.

With `COc1ccc(S(=O)(=O)Nc2ncnc3cc(OCCN4CCN(C)CC4)c(OC)cc23)cc1`, the IC50 was at most 1000 nM.

Take `COc1ccc(OC)c(S(=O)(=O)Nc2ncnc3cc(OCCN4CCCCC4)c(OC)cc23)c1`: the concentration for half-maximal inhibition (IC50) is at most 1000 nM.

For `CCN(CC)CCOc1cc2ncnc(NS(=O)(=O)c3cc(OC)ccc3OC)c2cc1OC`, the IC50 is at most 1000 nM.

In turn, `COc1cc2c(NS(C)(=O)=O)ncnc2cc1OCCN1CCN(C)CC1` showed an IC50 of at most 1000 nM.

Take `CCN(CC)CCOc1cc2ncnc(NS(=O)(=O)c3ccc(C(C)(C)C)cc3)c2cc1OC`: the IC50 is at most 1000 nM.

`CCN(CC)CCOc1cc2ncnc(NS(=O)(=O)c3ccc(F)cc3)c2cc1OC` yielded an IC50 of at most 1000 nM.

For `COc1cc2c(NS(=O)(=O)c3cccc(Cl)c3)ncnc2cc1OCCCN(C)C`, the IC50 was at most 1000 nM.

On to `COc1cc2c(NS(=O)(=O)c3ccccc3Cl)ncnc2cc1OCCN1CCN(C)CC1`, for which the IC50 is at most 1000 nM.

The compound `COc1cc2c(NS(=O)(=O)c3ccc(F)cc3)ncnc2cc1OCCN1CCCCC1` returned an IC50 of at most 1000 nM.

The compound `COc1ccc(S(=O)(=O)Nc2ncnc3cc(OCCCN(C)C)c(OC)cc23)cc1OC` returned an IC50 of at most 1000 nM.

The compound `COc1cc2c(NS(=O)(=O)c3cccc(Br)c3)ncnc2cc1OCCCN(C)C` gave an IC50 of at most 1000 nM.

`COc1cc2c(NS(=O)(=O)c3cc(Cl)c(Cl)s3)ncnc2cc1OCCN1CCOCC1` came in with an IC50 of at most 1000 nM.

`COc1cc2c(NS(=O)(=O)c3cccc(Br)c3)ncnc2cc1OC1CCN(C)CC1` returned an IC50 of at most 1000 nM.

For the compound `COc1cc2c(NS(=O)(=O)c3cccc(Cl)c3Cl)ncnc2cc1OCCN1CCOCC1`, the IC50 is at most 1000 nM.

`COc1cc2c(NS(=O)(=O)c3ccccc3Br)ncnc2cc1OCCCN1CCOCC1`: the IC50 was at most 1000 nM.

Regarding `COc1cc2c(NS(=O)(=O)c3ccc(F)cc3)ncnc2cc1OCCN1CCN(C)CC1`, the IC50 is at most 1000 nM.

`COc1cc2c(NS(=O)(=O)c3cc(Cl)cc(Cl)c3)ncnc2cc1OCCCN(C)C` registered an IC50 of at most 1000 nM.

`COc1cc2c(NS(=O)(=O)c3ccccc3)ncnc2cc1OC1CCN(C)CC1`: the IC50 was at most 1000 nM.

In turn, `COc1cc2c(NS(=O)(=O)c3ccc(F)cc3)ncnc2cc1OCCN1CCOCC1` gave an IC50 of at most 1000 nM.

`COc1cc2c(NS(=O)(=O)c3ccc(OC(F)(F)F)cc3)ncnc2cc1OC1CCN(C)CC1` came in with an IC50 of at most 1000 nM.

Take `COc1ccc(OC)c(S(=O)(=O)Nc2ncnc3cc(OCCN4CCOCC4)c(OC)cc23)c1`: the 50% inhibitory concentration (IC50) was at most 1000 nM.

For `CCN(CC)CCOc1cc2ncnc(NS(=O)(=O)c3cc(Cl)cc(Cl)c3)c2cc1OC`, the IC50 is at most 1000 nM.

On to `CCN(CC)CCOc1cc2ncnc(NS(=O)(=O)c3c(C)noc3C)c2cc1OC`, for which the IC50 is at most 1000 nM.

The compound `COc1cc2c(NS(=O)(=O)c3ccccc3Cl)ncnc2cc1OCCN1CCCCC1` yielded an IC50 of at most 1000 nM.

Regarding `COc1cc2c(NS(=O)(=O)c3ccc(Cl)s3)ncnc2cc1OCCCN(C)C`, the IC50 is at most 1000 nM.

In turn, `CCN(CC)CCOc1cc2ncnc(NS(=O)(=O)c3ccccc3Cl)c2cc1OC` gave an IC50 of at most 1000 nM.

The compound `COc1cc2c(NS(=O)(=O)c3c(C)cc(C)cc3C)ncnc2cc1OCCN1CCOCC1` registered an IC50 of at most 1000 nM.

With `COc1cc2c(NS(=O)(=O)c3ccccc3Cl)ncnc2cc1OCCCN1CCOCC1`, the IC50 is at most 1000 nM.

In turn, `COc1cc2c(NS(=O)(=O)Cc3ccccc3)ncnc2cc1OCCCN(C)C` returned an IC50 of at most 1000 nM.

Consider `COc1ccc(S(=O)(=O)Nc2ncnc3cc(OCCN4CCOCC4)c(OC)cc23)cc1OC`, for which the IC50 was at most 1000 nM.

In the case of `CCN(CC)CCOc1cc2ncnc(NS(=O)(=O)c3ccc(OC(F)(F)F)cc3)c2cc1OC`, the IC50 is at most 1000 nM.

As to `COc1cc2c(NS(=O)(=O)c3cn(C)cn3)ncnc2cc1OCCN1CCOCC1`, the IC50 was at most 1000 nM.

In the case of `COc1cc2c(NS(=O)(=O)c3ccc(Br)cc3)ncnc2cc1OCCCN(C)C`, the IC50 was at most 1000 nM.

The compound `COc1cc2c(NS(C)(=O)=O)ncnc2cc1OCCN1CCOCC1` returned an IC50 of at most 1000 nM.

`COc1cc2c(NS(=O)(=O)c3ccc(Sc4cccs4)s3)ncnc2cc1OCCCN(C)C` returned an IC50 of at most 1000 nM.

Compound `CCN(CC)CCOc1cc2ncnc(NS(C)(=O)=O)c2cc1OC` came in with an IC50 of at most 1000 nM.

Consider `CCN(CC)CCOc1cc2ncnc(NS(=O)(=O)c3ccc(Cl)cc3)c2cc1OC`, for which the IC50 was at most 1000 nM.

In turn, `COc1cc2c(NS(=O)(=O)c3ccc(C)cc3)ncnc2cc1OC1CCN(C)CC1` registered an IC50 of at most 1000 nM.

The compound `COc1cc2c(NS(=O)(=O)c3ccc(F)cc3)ncnc2cc1OCCCN1CCOCC1` returned an IC50 of at most 1000 nM.

With `COc1cc2c(NS(=O)(=O)c3ccc(C)cc3)ncnc2cc1OCCN1CCOCC1`, the IC50 was at most 1000 nM.

As for `COc1cc2c(NS(=O)(=O)c3cn(C)cn3)ncnc2cc1OCCN1CCCCC1`, the IC50 is at most 1000 nM.

In turn, `COc1cc2c(NS(=O)(=O)c3cccc(Cl)c3)ncnc2cc1OCCN1CCCCC1` gave an IC50 of at most 1000 nM.

As for `COc1cc2c(NS(=O)(=O)c3ccc(Cl)cc3)ncnc2cc1OCCN1CCN(C)CC1`, the half-maximal inhibitory concentration (IC50) was at most 1000 nM.

As to `CCN(CC)CCOc1cc2ncnc(NS(=O)(=O)c3ccc(OC)cc3)c2cc1OC`, the IC50 was at most 1000 nM.

In turn, `CCN(CC)CCOc1cc2ncnc(NS(=O)(=O)c3ccc(Sc4cccs4)s3)c2cc1OC` came in with an IC50 of at most 1000 nM.

Consider `COc1cc2c(NS(=O)(=O)c3cccc4cccnc34)ncnc2cc1OCCCN(C)C`, for which the IC50 is at most 1000 nM.

`COc1cc2c(NS(=O)(=O)c3ccc(Sc4ccccc4)s3)ncnc2cc1OC1CCN(C)CC1` came in with an IC50 of at most 1000 nM.

Compound `CCN(CC)CCOc1cc2ncnc(NS(=O)(=O)c3cccc4cccnc34)c2cc1OC` registered an IC50 of at most 1000 nM.

With `COc1cc2c(NS(=O)(=O)c3ccc(C)cc3)ncnc2cc1OCCCN(C)C`, the half-inhibitory concentration (IC50) was at most 1000 nM.

Take `COc1cc2c(NS(=O)(=O)c3ccc(Cl)cc3)ncnc2cc1OCCCN1CCOCC1`: the half-inhibitory concentration (IC50) was at most 1000 nM.

As to `COc1ccc(S(=O)(=O)Nc2ncnc3cc(OC4CCN(C)CC4)c(OC)cc23)cc1OC`, the IC50 is at most 1000 nM.

`CCN(CC)CCOc1cc2ncnc(NS(=O)(=O)Cc3ccccc3)c2cc1OC` gave an IC50 of at most 1000 nM.

Turning to `CCN(CC)CCOc1cc2ncnc(NS(=O)(=O)c3c(C)cc(C)cc3C)c2cc1OC`, the IC50 was at most 1000 nM.

Turning to `CCN(CC)CCOc1cc2ncnc(NS(=O)(=O)c3ccccc3C)c2cc1OC`, the concentration for half-maximal inhibition (IC50) was at most 1000 nM.

Compound `COc1cc2c(NS(=O)(=O)c3ccc(C(C)(C)C)cc3)ncnc2cc1OCCN1CCN(C)CC1` had an IC50 of at most 1000 nM.

For the compound `COc1cc2c(NS(=O)(=O)c3cccc4cccnc34)ncnc2cc1OC1CCN(C)CC1`, the IC50 was at most 1000 nM.

`COc1cc2c(NS(=O)(=O)Cc3ccccc3)ncnc2cc1OCCN1CCCCC1` displayed an IC50 of at most 1000 nM.

`COc1cc2c(NS(=O)(=O)c3cccc(Cl)c3)ncnc2cc1OCCN1CCOCC1` had an IC50 of at most 1000 nM.

With `COc1ccc(S(=O)(=O)Nc2ncnc3cc(OCCCN4CCOCC4)c(OC)cc23)cc1`, the IC50 was at most 1000 nM.

`COc1cc2c(NS(=O)(=O)c3ccc(OC(F)(F)F)cc3)ncnc2cc1OCCN1CCCCC1` displayed an IC50 of at most 1000 nM.

Take `COc1cc2c(NS(=O)(=O)c3cccc(Br)c3)ncnc2cc1OCCN1CCN(C)CC1`: the IC50 is at most 1000 nM.

Compound `COc1cc2c(NS(=O)(=O)c3cc(Cl)c(Cl)s3)ncnc2cc1OCCCN(C)C` had an IC50 of at most 1000 nM.

Compound `CCN(CC)CCOc1cc2ncnc(NS(=O)(=O)c3ccc(Br)cc3)c2cc1OC` displayed an IC50 of at most 1000 nM.

`COc1cc2c(NS(=O)(=O)c3sc(C)nc3C)ncnc2cc1OCCN1CCOCC1` displayed an IC50 of at most 1000 nM.

Take `COc1cc2c(NS(=O)(=O)c3cccc(Cl)c3Cl)ncnc2cc1OCCCN(C)C`: the IC50 is at most 1000 nM.

With `CCN(CC)CCOc1cc2ncnc(NS(=O)(=O)c3ccc(C)cc3)c2cc1OC`, the IC50 was at most 1000 nM.

The compound `COc1ccc(S(=O)(=O)Nc2ncnc3cc(OCCN4CCOCC4)c(OC)cc23)cc1` displayed an IC50 of at most 1000 nM.

In turn, `CCN(CC)CCOc1cc2ncnc(NS(=O)(=O)c3cccc(Br)c3)c2cc1OC` registered an IC50 of at most 1000 nM.

In the case of `COc1cc2c(NS(=O)(=O)c3cccc4cccnc34)ncnc2cc1OCCN1CCOCC1`, the IC50 is at most 1000 nM.

With `COc1cc2c(NS(=O)(=O)c3ccccc3C)ncnc2cc1OCCN1CCN(C)CC1`, the IC50 was at most 1000 nM.
